Test results published in ChEMBL document CHEMBL6121059, “Small Molecule Modulators of AMP-Activated Protein Kinase (AMPK) Activity and Their Potential in Cancer Therapy” (J Med Chem, 2025).

What was measured:
[1] = biological target: 5'-AMP-activated protein kinase catalytic subunit alpha-1 (Homo sapiens, UniProt Q13131); assay: Inhibition of AMPKalpha1 (unknown origin)
[2] = biological target: Serine/threonine-protein kinase N1 (Homo sapiens) (UniProt Q16512); assay: Activation of PRK1 (unknown origin) at 10 uM relative to control
Chain of Serine/threonine-protein kinase N1 (Homo sapiens) (Q16512 2-942 limits assumed): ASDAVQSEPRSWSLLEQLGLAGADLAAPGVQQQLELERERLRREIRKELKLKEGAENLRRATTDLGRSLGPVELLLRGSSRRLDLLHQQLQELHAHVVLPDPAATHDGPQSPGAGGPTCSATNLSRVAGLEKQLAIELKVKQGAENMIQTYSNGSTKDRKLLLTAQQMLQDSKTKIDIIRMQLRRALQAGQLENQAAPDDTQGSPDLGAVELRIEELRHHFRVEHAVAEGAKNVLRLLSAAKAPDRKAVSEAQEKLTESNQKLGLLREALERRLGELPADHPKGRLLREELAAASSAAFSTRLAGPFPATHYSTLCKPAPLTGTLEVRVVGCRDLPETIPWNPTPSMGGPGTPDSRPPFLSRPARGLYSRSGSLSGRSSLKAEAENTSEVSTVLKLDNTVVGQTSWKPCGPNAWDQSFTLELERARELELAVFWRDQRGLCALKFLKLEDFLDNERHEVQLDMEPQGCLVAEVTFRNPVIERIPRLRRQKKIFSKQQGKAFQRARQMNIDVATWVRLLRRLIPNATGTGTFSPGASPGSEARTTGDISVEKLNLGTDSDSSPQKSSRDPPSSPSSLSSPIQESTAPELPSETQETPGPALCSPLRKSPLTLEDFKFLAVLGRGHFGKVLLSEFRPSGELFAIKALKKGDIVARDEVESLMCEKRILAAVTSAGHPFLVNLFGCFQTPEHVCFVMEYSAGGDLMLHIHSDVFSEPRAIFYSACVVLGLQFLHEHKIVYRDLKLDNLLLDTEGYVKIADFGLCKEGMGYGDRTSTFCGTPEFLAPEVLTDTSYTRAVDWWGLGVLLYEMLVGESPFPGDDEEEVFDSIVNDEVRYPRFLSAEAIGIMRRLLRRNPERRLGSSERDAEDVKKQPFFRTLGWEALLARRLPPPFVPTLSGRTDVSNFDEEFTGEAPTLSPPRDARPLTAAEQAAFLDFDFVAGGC

[3] = biological target: Epithelial discoidin domain-containing receptor 1 (Homo sapiens) (UniProt Q08345); assay: Inhibition of DDR1 (unknown origin) at 10 uM relative to control
Chain of Epithelial discoidin domain-containing receptor 1 (Homo sapiens) (Q08345 whole entry, the tested form may be a part): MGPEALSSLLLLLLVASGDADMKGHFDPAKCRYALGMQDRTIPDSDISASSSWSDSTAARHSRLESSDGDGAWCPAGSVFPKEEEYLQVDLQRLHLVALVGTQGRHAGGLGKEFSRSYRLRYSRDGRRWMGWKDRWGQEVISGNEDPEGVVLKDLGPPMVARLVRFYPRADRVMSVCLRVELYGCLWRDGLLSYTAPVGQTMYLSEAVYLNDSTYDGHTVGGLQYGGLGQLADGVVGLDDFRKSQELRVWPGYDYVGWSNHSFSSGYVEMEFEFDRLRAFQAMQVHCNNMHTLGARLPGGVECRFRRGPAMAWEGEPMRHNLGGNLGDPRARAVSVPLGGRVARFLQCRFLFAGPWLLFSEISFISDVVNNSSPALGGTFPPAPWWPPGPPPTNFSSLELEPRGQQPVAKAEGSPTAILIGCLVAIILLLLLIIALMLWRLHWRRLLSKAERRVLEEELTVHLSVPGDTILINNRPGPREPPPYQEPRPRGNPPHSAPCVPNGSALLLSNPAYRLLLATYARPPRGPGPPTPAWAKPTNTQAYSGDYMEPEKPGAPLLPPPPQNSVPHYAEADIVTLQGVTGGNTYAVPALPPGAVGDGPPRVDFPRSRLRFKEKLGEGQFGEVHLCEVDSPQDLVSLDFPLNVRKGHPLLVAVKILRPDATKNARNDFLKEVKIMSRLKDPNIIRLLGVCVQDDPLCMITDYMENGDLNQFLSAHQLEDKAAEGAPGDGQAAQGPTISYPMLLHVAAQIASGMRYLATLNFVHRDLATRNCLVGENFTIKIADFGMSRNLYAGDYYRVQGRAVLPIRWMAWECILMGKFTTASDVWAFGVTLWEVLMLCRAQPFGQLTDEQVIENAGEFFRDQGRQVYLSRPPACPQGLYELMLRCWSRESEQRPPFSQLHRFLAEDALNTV

[4] = biological target: Serine/threonine-protein kinase PAK 1 (Homo sapiens) (UniProt Q13153); assay: Activation of PAK1 (unknown origin) at 10 uM relative to control
Chain of Serine/threonine-protein kinase PAK 1 (Homo sapiens) (Q13153 whole entry, looked up): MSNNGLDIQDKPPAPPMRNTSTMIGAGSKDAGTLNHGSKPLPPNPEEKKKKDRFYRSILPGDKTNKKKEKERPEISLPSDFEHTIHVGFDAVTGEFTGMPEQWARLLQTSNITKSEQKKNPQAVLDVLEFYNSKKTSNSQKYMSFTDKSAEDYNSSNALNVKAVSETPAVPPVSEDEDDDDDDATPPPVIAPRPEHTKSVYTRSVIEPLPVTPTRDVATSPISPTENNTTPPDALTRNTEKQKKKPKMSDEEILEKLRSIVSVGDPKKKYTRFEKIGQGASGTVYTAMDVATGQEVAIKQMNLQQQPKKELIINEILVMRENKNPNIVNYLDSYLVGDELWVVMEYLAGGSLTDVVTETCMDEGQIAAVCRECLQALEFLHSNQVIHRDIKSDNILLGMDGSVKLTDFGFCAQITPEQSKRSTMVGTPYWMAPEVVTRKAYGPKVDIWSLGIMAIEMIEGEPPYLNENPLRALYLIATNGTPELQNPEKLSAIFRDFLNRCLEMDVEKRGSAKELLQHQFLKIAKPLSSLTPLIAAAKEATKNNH

Homo sapiens = species on record: Homo sapiens; assay: Inhibition of SRC (unknown origin) at 10 uM relative to control
[5] = biological target: T1, TGF-beta receptor type-1 (Homo sapiens) (UniProt P36897); assay: Inhibition of ALK5 (unknown origin) at 10 uM relative to control
T1 sequence (whole entry): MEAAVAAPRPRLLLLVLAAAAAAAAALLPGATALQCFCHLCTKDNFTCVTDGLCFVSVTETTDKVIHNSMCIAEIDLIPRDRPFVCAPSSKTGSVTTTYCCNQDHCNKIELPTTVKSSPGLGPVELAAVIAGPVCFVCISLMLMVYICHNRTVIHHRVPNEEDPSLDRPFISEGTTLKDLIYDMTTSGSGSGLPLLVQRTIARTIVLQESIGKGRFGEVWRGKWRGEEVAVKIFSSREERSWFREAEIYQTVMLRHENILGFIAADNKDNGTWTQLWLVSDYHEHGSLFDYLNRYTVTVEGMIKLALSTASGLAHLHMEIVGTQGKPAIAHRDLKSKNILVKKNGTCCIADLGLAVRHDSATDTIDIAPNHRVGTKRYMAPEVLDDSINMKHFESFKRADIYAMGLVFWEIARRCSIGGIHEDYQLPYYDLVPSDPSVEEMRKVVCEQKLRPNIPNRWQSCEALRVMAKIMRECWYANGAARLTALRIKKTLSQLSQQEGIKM

[6] = biological target: Leucine-rich repeat serine/threonine-protein kinase 2 (Homo sapiens) (UniProt Q5S007); assay: Activation of LRRK2 (unknown origin) at 10 uM relative to control
Chain of Leucine-rich repeat serine/threonine-protein kinase 2 (Homo sapiens) (Q5S007 whole entry): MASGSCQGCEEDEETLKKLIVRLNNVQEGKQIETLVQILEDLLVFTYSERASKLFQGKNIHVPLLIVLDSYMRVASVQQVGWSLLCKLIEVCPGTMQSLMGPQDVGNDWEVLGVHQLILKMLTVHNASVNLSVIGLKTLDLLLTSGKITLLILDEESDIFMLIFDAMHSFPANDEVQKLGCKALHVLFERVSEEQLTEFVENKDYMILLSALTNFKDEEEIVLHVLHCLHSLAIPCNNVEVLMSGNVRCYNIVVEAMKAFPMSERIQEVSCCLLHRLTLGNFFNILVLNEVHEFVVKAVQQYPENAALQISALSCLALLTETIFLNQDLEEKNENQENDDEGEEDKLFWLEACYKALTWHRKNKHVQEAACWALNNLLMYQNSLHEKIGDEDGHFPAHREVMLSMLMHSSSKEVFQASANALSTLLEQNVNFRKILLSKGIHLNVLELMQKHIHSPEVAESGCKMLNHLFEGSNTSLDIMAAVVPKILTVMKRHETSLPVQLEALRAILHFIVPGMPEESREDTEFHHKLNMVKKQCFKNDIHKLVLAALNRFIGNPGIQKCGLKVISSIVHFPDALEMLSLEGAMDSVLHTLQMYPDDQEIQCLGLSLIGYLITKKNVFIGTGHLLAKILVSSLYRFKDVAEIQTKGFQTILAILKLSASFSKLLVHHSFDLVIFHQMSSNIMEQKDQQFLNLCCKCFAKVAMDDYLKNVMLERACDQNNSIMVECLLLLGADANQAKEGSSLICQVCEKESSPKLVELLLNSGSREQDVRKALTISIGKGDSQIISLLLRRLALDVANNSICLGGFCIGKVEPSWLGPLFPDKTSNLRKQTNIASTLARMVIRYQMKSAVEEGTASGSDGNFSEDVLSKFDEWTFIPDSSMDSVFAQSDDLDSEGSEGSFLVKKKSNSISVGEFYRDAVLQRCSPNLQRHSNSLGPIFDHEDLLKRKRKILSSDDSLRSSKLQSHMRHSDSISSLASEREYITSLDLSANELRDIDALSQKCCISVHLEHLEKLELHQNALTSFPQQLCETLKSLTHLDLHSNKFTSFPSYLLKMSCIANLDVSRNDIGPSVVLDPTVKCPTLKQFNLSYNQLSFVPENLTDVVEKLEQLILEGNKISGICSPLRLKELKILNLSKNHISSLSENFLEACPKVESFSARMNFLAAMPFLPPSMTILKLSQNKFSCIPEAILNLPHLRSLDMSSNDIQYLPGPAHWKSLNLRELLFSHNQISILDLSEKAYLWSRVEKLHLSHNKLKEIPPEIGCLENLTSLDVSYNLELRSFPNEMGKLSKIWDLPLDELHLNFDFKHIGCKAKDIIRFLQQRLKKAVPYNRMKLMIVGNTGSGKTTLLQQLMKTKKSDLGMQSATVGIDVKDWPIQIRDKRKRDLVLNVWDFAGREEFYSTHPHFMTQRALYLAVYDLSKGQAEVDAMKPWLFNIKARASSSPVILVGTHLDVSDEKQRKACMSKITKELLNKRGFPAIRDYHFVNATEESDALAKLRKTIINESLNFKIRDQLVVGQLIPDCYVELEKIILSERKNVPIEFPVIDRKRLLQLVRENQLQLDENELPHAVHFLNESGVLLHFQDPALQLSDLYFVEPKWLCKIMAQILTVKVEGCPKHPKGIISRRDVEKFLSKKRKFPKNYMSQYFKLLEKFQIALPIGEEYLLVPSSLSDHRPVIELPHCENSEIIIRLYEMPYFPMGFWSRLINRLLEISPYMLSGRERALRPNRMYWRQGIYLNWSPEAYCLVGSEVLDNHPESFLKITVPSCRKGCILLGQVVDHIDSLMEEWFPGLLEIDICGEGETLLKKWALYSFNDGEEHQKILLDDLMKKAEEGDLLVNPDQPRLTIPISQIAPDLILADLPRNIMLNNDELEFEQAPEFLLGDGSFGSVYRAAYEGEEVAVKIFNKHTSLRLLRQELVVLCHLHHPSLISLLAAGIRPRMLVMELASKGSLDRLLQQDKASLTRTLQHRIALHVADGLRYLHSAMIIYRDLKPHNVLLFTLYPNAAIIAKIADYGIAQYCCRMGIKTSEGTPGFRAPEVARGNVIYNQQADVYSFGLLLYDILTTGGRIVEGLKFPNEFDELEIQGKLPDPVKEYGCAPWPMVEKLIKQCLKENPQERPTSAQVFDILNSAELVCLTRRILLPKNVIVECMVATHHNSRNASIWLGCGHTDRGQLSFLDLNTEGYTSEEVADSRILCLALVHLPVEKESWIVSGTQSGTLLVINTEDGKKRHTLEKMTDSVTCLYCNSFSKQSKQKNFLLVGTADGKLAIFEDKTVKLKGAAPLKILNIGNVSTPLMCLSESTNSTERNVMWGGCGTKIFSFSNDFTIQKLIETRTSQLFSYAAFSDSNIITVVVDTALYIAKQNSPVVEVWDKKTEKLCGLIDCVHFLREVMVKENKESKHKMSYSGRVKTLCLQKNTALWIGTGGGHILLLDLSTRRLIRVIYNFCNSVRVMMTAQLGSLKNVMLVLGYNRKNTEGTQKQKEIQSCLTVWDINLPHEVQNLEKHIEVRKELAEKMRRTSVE

VCaP = assay: Antiproliferative activity against human VCaP cells assessed as reduction in cell viability incubated for 3 days by cell-titer glo assay; assay type: functional, cell-based; settings: 72 h
COLO 320 = assay: Inhibition of cellular AMPK in human COLO 320 cells assessed as reduction in pACC1 levels in cell lysates by HTRF assay
LNCaP = assay: Inhibition of cellular AMPK in human LNCaP cells assessed as reduction in pACC1 levels in cell lysates by HTRF assay
[7] = Inhibition of full length GST-tagged human AMPKalpha2/beta1/gamma1 using HMRSAMSFAEPG biotinylated peptide as substrate in presence of 2 mM ATP by TR-FRET assay
IMR-32 = assay: Inhibition of cellular AMPK in human IMR-32 cells assessed as reduction in pACC1 levels in cell lysates by HTRF assay
[8] = Inhibition of full length GST-tagged human AMPKalpha2/beta1/gamma1 using HMRSAMSFAEPG biotinylated peptide as substrate in presence of 10 uM ATP by TR-FRET assay
[9] = Binding affinity to AMPK (unknown origin) assessed as inhibition constant; parameters: species or system Homo sapiens
[10] = Inhibition of AMPK (unknown origin); parameters: species or system Homo sapiens

In the case of CNC(=O)c1ccccc1Oc1nc(Nc2cc(OC)c(OC)c(OC)c2)ncc1Br, the IC50 [1] is reported as 0.4 µM.

O=C(O)Cc1csc(Nc2ccc(C(F)(F)F)cc2)n1 showed an activation [2] of 30%, an inhibition [3] greater than 50% and an activation [4] of 30%. It also gave an inhibition (Homo sapiens) greater than 50%, an inhibition [5] greater than 50% and an activation [6] of 30%.

CCc1ccccc1C(=O)Nc1n[nH]c2c(C)c(F)c(C3C(C#N)=C(C)N(C)C(C)=C3C#N)cc12 [BAY-3827] gave an IC50 (VCaP) of roughly 0.1 µM, an IC50 (COLO 320) of roughly 0.4 µM and an IC50 (LNCaP) of roughly 0.1 µM. For the same compound, the IC50 [7] was 0.015 µM, the IC50 (IMR-32) was roughly 0.15 µM and the IC50 [8] was 0.0014 µM.

For c1cc(-c2cnn3cc(-c4ccc(OCCN5CCCCC5)cc4)cnc23)ccn1 [DORSOMORPHIN], the Ki [9] was 0.109 µM and the IC50 [10] was 2.38 µM.

CCN(CC)CCNC(=O)c1c(C)[nH]c(/C=C2\C(=O)Nc3ccc(F)cc32)c1C [SUNITINIB] gave an IC50 [10] of 0.04 µM.
